Source: patent publication US11331299B2, “Medicinal use of serrulatane diterpenes” (The University of Sydney, priority 2016, dated 2022)
Like-named read-outs stand apart in the source and are kept apart here.

System: 280 human cancer cell lines
Experiment: OncoPanel cell proliferation assay (10-day)
Assay type: cell-based
Details: Homo sapiens; for IC50: read-out: Cell Count IC50; for EC50: read-out: Cell Count EC50; for GI50: read-out: Cell Count GI50
[1] = SJRH30, SJRH30, Soft Tissue - Sarcoma
[2] = SJSA-1, SJSA1, Soft Tissue - Osteosarcoma
[3] = SK-LMS-1, SK-LMS-1, Soft Tissue - Sarcoma
[4] = SK-MEL3, SK-MEL-3, Skin (Melanoma)
[5] = SK-MEL-1, SK-MEL-1, Skin (Melanoma)
[6] = SK-MEL-28, SK-MEL-28, Skin (Melanoma)
[7] = SK-OV-3, SKOV3, Female GU - Ovary
[8] = SK-UT-1, SK-UT-1, Soft Tissue - Sarcoma
[9] = SW579, SW579, Endocrine - Thyroid
[10] = SW684, SW684, Soft Tissue - Sarcoma

CC(C)=CCC[C@H](C)[C@@H]1CC[C@@H](C)c2c1cc(C)c(O)c2O [Compound 4, 7,8-dihydroxyserrulat-14-ene]
IC50 (SCaBER, Bladder): 16.9 µM
EC50 (SH-4, Skin (Melanoma)): 11.6 µM
GI50 (SH-4, Skin (Melanoma)): 11.5 µM
IC50 (SH-4, Skin (Melanoma)): 11.6 µM
EC50 (SHP77, SHP-77, Lung - SCLC): 6.83 µM
GI50 (SHP77, SHP-77, Lung - SCLC): 6.75 µM
IC50 (SHP77, SHP-77, Lung - SCLC): 6.83 µM
EC50 [1]: 3.68 µM
GI50 [1]: 3.68 µM
IC50 [1]: 3.68 µM
EC50 [2]: 7.45 µM
GI50 [2]: 7.45 µM
IC50 [2]: 7.45 µM
EC50 (SK-BR-3, SK-BR-3, Breast): 10.3 µM
GI50 (SK-BR-3, SK-BR-3, Breast): 9.97 µM
IC50 (SK-BR-3, SK-BR-3, Breast): 10.3 µM
EC50 [3]: 9.04 µM
GI50 [3]: 8.98 µM
IC50 [3]: 9.04 µM
EC50 [4]: > 30 µM
GI50 [4]: > 30 µM
IC50 [4]: > 30 µM
EC50 [5]: > 30 µM
GI50 [5]: > 30 µM
IC50 [5]: > 30 µM
EC50 [6]: 11.2 µM
GI50 [6]: 11.1 µM
IC50 [6]: 11.2 µM
EC50 (SK-MES-1, SKMES1, Lung - NSCLC): 11.6 µM
GI50 (SK-MES-1, SKMES1, Lung - NSCLC): 11.5 µM
IC50 (SK-MES-1, SKMES1, Lung - NSCLC): 11.6 µM
EC50 (SK-N-AS, CNS - Neuroblastoma): 5.86 µM
GI50 (SK-N-AS, CNS - Neuroblastoma): 5.75 µM
IC50 (SK-N-AS, CNS - Neuroblastoma): 5.86 µM
EC50 (SK-N-DZ, CNS - Neuroblastoma): 11.9 µM
GI50 (SK-N-DZ, CNS - Neuroblastoma): 11.5 µM
IC50 (SK-N-DZ, CNS - Neuroblastoma): 11.9 µM
EC50 (SK-N-FI, CNS - Neuroblastoma): 21.5 µM
GI50 (SK-N-FI, CNS - Neuroblastoma): 20.6 µM
IC50 (SK-N-FI, CNS - Neuroblastoma): 21.5 µM
EC50 [7]: 8.43 µM
GI50 [7]: 8.33 µM
IC50 [7]: 8.43 µM
EC50 (SK-PN-DW, Stomach): 4.91 µM
GI50 (SK-PN-DW, Stomach): 4.88 µM
IC50 (SK-PN-DW, Stomach): 4.91 µM
EC50 [8]: 5.49 µM
GI50 [8]: 5.46 µM
IC50 [8]: 5.49 µM
EC50 (SKO-007, SKO-007, Myeloma): 4.66 µM
GI50 (SKO-007, SKO-007, Myeloma): 4.55 µM
IC50 (SKO-007, SKO-007, Myeloma): 4.71 µM
EC50 (SNB-19, SNB-19, CNS - Glioma): 13 µM
GI50 (SNB-19, SNB-19, CNS - Glioma): 12.9 µM
IC50 (SNB-19, SNB-19, CNS - Glioma): 13 µM
EC50 (SNU1, SNU-1, Stomach): 6.99 µM
GI50 (SNU1, SNU-1, Stomach): 6.98 µM
IC50 (SNU1, SNU-1, Stomach): 6.99 µM
EC50 (SNU-5, SNU-5, Stomach): 14.4 µM
GI50 (SNU-5, SNU-5, Stomach): 14.2 µM
IC50 (SNU-5, SNU-5, Stomach): 14.4 µM
EC50 (SNU-16, SNU-16, Stomach): 11 µM
GI50 (SNU-16, SNU-16, Stomach): 11 µM
IC50 (SNU-16, SNU-16, Stomach): 11 µM
EC50 (SNU-423, SNU-423, Liver): 9.3 µM
GI50 (SNU-423, SNU-423, Liver): 9.28 µM
IC50 (SNU-423, SNU-423, Liver): 9.31 µM
EC50 (SR, Lymphoma): 4.39 µM
GI50 (SR, Lymphoma): 4.39 µM
IC50 (SR, Lymphoma): 4.39 µM
EC50 (ST486, ST486, Lymphoma): 2.66 µM
GI50 (ST486, ST486, Lymphoma): 2.65 µM
IC50 (ST486, ST486, Lymphoma): 2.66 µM
EC50 (SU-DHL10, SU-DHL-10, Lymphoma): 7.68 µM
GI50 (SU-DHL10, SU-DHL-10, Lymphoma): 7.67 µM
IC50 (SU-DHL10, SU-DHL-10, Lymphoma): 7.68 µM
EC50 (SU-DHL-4, SU-DHL-4, Lymphoma): 5.74 µM
GI50 (SU-DHL-4, SU-DHL-4, Lymphoma): 5.74 µM
IC50 (SU-DHL-4, SU-DHL-4, Lymphoma): 5.74 µM
EC50 (SU-DHL-5, SU-DHL-5, Lymphoma): 3.8 µM
GI50 (SU-DHL-5, SU-DHL-5, Lymphoma): 3.8 µM
IC50 (SU-DHL-5, SU-DHL-5, Lymphoma): 3.8 µM
EC50 (SU-DHL-8, SU-DHL-8, Lymphoma): 3.9 µM
GI50 (SU-DHL-8, SU-DHL-8, Lymphoma): 3.9 µM
IC50 (SU-DHL-8, SU-DHL-8, Lymphoma): 3.9 µM
EC50 (SU.86.86, SU.86.86, Pancreas): > 30 µM
GI50 (SU.86.86, SU.86.86, Pancreas): > 30 µM
IC50 (SU.86.86, SU.86.86, Pancreas): > 30 µM
EC50 (SUP-T1, SUP-T1, Lymphoma): 6.51 µM
GI50 (SUP-T1, SUP-T1, Lymphoma): 6.49 µM
IC50 (SUP-T1, SUP-T1, Lymphoma): 6.51 µM
EC50 (SW48, SW48, Colon): 13 µM
GI50 (SW48, SW48, Colon): 13 µM
IC50 (SW48, SW48, Colon): 13 µM
EC50 [9]: 11 µM
GI50 [9]: 11 µM
IC50 [9]: 11 µM
EC50 [10]: > 30 µM
GI50 [10]: > 30 µM
IC50 [10]: > 30 µM
EC50 (SW837, SW837, Colon): 18.9 µM
